Reference: ChEMBL document CHEMBL5465560, “Selectivity Literature for EUbOPEN Chemogenomic Library” (2024)

Experiments:
[1] = biological target: Bromodomain-containing protein 4 (Homo sapiens, UniProt O60885); assay: Selectivity interaction (Human bromodomain panel (DSF assay)) EUB0000233b BRD4
[2] = biological target: ATPase family AAA domain-containing protein 2 (Homo sapiens) (UniProt Q6PL18); assay: Selectivity interaction (Human bromodomain panel (DSF assay)) EUB0000233b ATAD2
[3] = biological target: T1, Mitogen-activated protein kinase kinase kinase kinase 2 (Homo sapiens) (UniProt Q12851); assay: Selectivity interaction (KinomeScan (DiscoverX)) EUB0000695a MAP4K2; details: at 100 nM
T1 sequence (whole entry): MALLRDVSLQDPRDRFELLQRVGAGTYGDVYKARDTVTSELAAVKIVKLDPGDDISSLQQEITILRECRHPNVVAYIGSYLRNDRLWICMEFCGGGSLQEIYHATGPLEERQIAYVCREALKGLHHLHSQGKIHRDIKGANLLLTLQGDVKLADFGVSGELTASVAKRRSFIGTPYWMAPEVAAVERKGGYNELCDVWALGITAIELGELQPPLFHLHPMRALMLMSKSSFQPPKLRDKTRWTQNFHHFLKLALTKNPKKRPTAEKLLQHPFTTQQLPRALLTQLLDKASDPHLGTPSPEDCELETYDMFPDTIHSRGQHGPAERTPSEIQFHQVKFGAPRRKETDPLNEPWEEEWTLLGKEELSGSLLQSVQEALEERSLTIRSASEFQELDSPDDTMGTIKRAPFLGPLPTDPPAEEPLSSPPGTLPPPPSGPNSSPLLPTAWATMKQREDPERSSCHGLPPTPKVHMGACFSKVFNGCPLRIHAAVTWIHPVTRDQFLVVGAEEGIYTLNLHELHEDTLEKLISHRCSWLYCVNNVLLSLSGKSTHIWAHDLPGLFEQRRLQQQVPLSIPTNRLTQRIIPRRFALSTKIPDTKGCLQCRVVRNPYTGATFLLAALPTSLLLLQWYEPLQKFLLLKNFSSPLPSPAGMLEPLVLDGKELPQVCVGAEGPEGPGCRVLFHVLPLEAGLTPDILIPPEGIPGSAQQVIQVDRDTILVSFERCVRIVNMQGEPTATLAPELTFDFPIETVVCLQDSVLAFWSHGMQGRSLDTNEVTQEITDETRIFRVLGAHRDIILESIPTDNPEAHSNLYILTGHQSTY

[4] = biological target: Serine/threonine-protein kinase 32A (Homo sapiens) (UniProt Q8WU08); assay: Selectivity interaction (KinomeScan (DiscoverX)) EUB0001079a STK32A; details: at 1 µM
Serine/threonine-protein kinase 32A (Homo sapiens), sequence (Q8WU08 whole entry): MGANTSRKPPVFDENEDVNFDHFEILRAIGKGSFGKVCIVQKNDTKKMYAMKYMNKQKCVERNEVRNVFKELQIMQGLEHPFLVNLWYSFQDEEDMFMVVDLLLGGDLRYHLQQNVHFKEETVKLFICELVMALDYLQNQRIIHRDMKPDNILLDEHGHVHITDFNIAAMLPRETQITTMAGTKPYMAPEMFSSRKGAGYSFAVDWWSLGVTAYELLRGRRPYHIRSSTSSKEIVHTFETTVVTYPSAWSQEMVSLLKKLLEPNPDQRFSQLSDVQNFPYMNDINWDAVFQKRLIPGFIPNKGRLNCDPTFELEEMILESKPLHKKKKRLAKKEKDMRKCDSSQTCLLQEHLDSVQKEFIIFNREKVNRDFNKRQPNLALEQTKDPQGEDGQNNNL

[5] = biological target: T2, cGMP-dependent protein kinase 2 (Homo sapiens) (UniProt Q13237); details: at 10 µM
T2 sequence (whole entry): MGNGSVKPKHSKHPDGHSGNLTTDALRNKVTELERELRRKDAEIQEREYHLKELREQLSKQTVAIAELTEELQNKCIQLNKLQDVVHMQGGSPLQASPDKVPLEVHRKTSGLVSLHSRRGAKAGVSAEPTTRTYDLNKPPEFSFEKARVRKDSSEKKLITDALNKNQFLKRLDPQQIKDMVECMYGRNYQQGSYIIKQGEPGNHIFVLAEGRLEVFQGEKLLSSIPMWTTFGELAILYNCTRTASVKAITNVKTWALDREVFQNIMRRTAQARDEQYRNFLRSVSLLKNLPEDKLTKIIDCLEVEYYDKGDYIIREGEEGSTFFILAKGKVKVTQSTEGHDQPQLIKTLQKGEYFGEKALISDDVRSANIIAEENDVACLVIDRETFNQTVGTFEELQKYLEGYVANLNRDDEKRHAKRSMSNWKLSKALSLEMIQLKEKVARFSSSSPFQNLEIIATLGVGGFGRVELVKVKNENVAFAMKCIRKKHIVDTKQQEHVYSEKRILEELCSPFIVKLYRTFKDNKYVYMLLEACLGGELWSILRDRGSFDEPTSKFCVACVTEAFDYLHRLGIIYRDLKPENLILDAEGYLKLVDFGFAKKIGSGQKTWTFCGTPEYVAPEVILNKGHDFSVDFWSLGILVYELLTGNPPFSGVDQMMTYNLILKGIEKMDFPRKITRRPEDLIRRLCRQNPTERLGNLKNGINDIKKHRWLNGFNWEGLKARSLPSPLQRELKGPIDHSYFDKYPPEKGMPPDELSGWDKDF

[6] = biological target: Tyrosine-protein kinase JAK1 (Homo sapiens, UniProt P23458); assay: Selectivity interaction (ActivX KiNativ screen (ex vivo kinase selectivity in human PBMCs)) EUB0001619a JAK1; format: cell-based; details: PBMC, at 1 µM
[7] = biological target: Serine/threonine-protein kinase PAK 3 (Homo sapiens) (UniProt O75914); assay: Selectivity interaction (KinomeScan (DiscoverX)) EUB0001619a PAK3; details: at 1 µM
Serine/threonine-protein kinase PAK 3 (Homo sapiens), sequence (O75914 whole entry, looked up): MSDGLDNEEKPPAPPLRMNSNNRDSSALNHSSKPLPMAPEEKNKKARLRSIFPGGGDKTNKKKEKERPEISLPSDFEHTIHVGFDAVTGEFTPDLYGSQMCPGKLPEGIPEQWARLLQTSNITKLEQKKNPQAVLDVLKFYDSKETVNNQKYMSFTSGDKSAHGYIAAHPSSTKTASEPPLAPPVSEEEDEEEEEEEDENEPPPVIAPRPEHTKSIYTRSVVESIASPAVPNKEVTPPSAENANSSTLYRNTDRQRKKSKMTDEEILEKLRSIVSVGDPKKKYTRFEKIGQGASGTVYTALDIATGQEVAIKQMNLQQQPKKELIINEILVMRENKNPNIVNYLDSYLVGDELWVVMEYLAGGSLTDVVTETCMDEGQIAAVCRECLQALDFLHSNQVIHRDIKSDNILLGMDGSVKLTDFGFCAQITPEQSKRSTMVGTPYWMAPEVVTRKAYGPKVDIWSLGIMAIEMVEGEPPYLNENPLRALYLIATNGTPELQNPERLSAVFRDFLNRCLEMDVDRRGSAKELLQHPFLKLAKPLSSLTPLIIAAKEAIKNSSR

[8] = biological target: Epidermal growth factor receptor (Homo sapiens, UniProt P00533); assay: Selectivity interaction (Radiometric kinase assay (using 10 uM ATP)) EUB0000601a EGFR
Epidermal growth factor receptor, sequence (P00533 whole entry): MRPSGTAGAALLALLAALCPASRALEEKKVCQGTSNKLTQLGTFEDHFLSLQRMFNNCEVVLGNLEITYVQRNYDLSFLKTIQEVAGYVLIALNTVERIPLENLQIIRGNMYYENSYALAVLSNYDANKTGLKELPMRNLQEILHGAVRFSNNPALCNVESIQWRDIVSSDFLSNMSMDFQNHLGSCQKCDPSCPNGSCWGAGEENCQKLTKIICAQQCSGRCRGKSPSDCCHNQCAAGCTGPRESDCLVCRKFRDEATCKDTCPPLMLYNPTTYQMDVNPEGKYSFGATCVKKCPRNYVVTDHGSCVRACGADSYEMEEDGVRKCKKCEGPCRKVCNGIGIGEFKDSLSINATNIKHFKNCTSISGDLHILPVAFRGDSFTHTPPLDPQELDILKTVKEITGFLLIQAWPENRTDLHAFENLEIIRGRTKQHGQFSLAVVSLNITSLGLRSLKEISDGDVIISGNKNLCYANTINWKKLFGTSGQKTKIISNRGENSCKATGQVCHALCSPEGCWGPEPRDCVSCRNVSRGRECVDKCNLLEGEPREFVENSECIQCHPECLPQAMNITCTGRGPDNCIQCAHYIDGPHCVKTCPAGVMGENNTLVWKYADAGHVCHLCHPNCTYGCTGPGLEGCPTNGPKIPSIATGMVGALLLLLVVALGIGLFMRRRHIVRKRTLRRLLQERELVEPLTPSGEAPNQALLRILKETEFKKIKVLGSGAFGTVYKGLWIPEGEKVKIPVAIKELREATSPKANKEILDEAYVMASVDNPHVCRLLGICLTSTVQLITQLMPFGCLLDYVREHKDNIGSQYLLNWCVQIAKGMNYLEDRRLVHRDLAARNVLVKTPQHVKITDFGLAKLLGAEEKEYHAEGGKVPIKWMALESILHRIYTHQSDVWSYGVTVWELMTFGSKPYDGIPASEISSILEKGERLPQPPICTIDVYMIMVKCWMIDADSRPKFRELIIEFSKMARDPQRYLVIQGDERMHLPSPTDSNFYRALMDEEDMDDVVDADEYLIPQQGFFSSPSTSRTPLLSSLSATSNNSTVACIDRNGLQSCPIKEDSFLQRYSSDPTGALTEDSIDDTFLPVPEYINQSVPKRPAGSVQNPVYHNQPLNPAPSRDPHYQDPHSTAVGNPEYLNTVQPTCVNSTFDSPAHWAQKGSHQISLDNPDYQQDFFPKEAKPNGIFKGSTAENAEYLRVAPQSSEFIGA

[9] = biological target: T3, Protein kinase C iota type (Homo sapiens) (UniProt P41743); assay: Selectivity interaction (KinomeScan (DiscoverX)) EUB0000607a PRKCI; details: at 10 µM
T3 sequence (whole entry): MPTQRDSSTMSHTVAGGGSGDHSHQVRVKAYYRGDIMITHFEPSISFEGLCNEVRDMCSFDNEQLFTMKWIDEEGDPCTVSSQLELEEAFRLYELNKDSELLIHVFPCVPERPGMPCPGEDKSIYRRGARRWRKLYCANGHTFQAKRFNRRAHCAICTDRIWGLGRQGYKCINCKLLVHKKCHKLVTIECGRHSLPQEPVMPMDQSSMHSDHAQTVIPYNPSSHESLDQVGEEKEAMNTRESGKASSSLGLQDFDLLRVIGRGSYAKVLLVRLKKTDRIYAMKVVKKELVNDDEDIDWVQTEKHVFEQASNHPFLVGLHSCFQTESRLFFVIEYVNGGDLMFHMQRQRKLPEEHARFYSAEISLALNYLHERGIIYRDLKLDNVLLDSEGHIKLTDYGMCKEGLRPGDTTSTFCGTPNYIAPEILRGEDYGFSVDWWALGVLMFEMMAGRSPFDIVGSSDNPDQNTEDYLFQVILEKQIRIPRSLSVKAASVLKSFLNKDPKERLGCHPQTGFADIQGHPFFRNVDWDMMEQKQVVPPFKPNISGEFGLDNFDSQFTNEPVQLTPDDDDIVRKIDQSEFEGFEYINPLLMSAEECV

[10] = biological target: Tyrosine-protein kinase Fgr (Homo sapiens) (UniProt P09769); assay: Selectivity interaction (KinomeScan (DiscoverX)) EUB0000607a FGR; details: at 10 µM
[11] = biological target: Non-receptor tyrosine-protein kinase TYK2 (Homo sapiens, UniProt P29597); assay: Selectivity interaction (ActivX KiNativ screen (kinase selectivity in THP-1 cell lysates)) EUB0000639a TYK2; format: subcellular; details: lysate, at 5 µM
Non-receptor tyrosine-protein kinase TYK2, sequence (P29597 whole entry): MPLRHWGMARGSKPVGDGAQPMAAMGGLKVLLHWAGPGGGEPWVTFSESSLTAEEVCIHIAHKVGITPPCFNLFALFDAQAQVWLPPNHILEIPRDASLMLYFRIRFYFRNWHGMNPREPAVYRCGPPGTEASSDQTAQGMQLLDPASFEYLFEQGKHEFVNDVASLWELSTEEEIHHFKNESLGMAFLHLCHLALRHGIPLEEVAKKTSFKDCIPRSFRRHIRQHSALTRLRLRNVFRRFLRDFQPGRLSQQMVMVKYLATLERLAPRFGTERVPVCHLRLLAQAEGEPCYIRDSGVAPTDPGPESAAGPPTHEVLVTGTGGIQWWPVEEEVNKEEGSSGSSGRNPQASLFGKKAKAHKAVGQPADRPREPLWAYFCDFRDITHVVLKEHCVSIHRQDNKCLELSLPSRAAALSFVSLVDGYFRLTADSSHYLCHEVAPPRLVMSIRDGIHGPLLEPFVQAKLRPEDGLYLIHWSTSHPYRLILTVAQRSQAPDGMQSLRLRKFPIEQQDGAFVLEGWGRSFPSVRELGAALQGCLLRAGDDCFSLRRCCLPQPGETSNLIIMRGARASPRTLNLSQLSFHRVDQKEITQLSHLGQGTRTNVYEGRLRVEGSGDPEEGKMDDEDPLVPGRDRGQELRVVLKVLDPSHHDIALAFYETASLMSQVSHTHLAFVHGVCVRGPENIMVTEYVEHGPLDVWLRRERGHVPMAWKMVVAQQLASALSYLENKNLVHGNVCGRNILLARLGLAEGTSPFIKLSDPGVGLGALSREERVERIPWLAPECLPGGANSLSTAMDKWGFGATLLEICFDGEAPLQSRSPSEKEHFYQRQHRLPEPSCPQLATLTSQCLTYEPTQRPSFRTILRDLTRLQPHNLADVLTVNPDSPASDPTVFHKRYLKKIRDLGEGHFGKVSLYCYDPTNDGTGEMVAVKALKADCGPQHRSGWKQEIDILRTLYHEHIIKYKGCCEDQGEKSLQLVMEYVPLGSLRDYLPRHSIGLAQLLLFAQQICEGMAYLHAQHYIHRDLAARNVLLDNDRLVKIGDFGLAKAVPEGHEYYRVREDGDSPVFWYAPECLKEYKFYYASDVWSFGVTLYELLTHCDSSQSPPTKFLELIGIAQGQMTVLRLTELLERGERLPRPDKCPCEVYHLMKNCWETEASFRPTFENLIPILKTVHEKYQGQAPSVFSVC

[12] = biological target: Mitogen-activated protein kinase 6 (Homo sapiens) (UniProt Q16659); assay: Selectivity interaction (KinomeScan (DiscoverX)) EUB0000655a MAPK6; details: at 10 µM
Mitogen-activated protein kinase 6 (Homo sapiens), sequence (Q16659 whole entry): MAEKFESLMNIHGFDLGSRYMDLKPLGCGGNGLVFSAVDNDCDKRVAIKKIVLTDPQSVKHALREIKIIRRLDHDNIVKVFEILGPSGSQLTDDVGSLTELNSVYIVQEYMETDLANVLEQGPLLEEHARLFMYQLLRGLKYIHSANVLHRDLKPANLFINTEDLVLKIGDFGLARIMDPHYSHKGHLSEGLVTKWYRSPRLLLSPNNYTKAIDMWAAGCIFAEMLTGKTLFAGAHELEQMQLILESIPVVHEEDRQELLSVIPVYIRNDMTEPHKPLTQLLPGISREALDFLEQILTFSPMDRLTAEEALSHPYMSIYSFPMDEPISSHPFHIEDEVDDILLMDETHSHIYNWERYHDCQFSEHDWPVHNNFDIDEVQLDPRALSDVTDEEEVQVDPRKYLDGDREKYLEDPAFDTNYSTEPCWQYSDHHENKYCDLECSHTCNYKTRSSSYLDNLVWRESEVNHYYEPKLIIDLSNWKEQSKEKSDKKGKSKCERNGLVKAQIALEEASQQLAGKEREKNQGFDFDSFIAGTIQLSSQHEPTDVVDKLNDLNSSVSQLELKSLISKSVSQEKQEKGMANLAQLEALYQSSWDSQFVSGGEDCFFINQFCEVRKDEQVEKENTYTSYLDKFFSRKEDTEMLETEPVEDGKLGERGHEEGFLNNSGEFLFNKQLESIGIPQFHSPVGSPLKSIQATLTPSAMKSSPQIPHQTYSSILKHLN

[13] = biological target: Tyrosine-protein kinase Blk (Homo sapiens) (UniProt P51451); assay: Selectivity interaction (KinomeScan (DiscoverX)) EUB0000655a BLK; details: at 10 µM
Tyrosine-protein kinase Blk (Homo sapiens), sequence (P51451 2-505 limits assumed): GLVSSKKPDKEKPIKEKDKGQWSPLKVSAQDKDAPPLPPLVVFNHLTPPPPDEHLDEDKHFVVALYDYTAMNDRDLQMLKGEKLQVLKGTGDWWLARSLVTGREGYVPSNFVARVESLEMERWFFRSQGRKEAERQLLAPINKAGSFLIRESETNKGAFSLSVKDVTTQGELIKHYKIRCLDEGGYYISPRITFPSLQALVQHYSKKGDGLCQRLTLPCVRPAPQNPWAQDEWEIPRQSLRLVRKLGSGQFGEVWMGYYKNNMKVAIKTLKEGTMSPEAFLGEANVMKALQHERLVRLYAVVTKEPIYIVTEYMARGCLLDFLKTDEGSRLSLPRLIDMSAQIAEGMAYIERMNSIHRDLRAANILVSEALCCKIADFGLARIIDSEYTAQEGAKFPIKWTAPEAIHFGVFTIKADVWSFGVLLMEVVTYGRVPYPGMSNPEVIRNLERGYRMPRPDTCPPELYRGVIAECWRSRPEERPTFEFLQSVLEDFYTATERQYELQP

Structure (SMILES): CN(C)CCCOc1ccc(-c2cc(NCCCn3cccn3)nc(S(C)(=O)=O)n2)cc1
- dTM [1]: < 2 K
- dTM [2]: < 2 K

Structure (SMILES): Cc1cc(F)c(C(=O)Nc2cccc(-c3nncn3C(C)C)n2)cc1-n1cnc(C2CC2)c1
- % of control [3]: 100%

Structure (SMILES): Nc1cnc(N2CCc3cc(S(=O)(=O)Nc4c(F)cc(Cl)cc4F)cc(N4CCCC4=O)c32)nc1 [TP-020n]
- % of control [4]: 80%

Structure (SMILES): Cc1cc([C@@H](C)Nc2ccccc2C(=O)O)c2nc(N3CCOCC3)cc(=O)n2c1 [AZD-6482]
- % of control [5]: 98%

Structure (SMILES): N#Cc1cccc(-c2c[nH]c3ncnc(N4CCOCC4)c23)c1
- % of inhibition [6]: -1%
- % of control [7]: 74%

Structure (SMILES): CCc1cc(Nc2nccc(-c3c(-c4ccc(OC)c(C(=O)Nc5c(F)cccc5F)c4)nc4ccccn34)n2)c(OC)cc1N1CCC(N2CCN(S(C)(=O)=O)CC2)CC1
- IC50 [8]: > 10 µM

Structure (SMILES): CNC(=O)Nc1ccc(-c2nc(N3CC4CCC(C3)O4)c3cnn(C4CCC5(CC4)OCCO5)c3n2)cc1
- % of control [9]: 67%
- % of control [10]: 100%

Structure (SMILES): CC[C@@H]1[C@H](F)C(=O)N[C@@H]1COc1nccc2cc(C(N)=O)c(OC)cc12 [ZIMLOVISERTIB]
- % of inhibition [11]: 37.4%

Structure (SMILES): CN(C)CCOc1ccc(-c2nc(-c3ccncc3)c(-c3ccc4c(c3)CC/C4=N\O)[nH]2)cc1
- % of control [12]: 92%
- % of control [13]: 59%
